Consider nine compounds from ChEMBL document CHEMBL5113466, “Design, synthesis, and bioactivity evaluation of macrocyclic benzo[b]pyrido[4,3-e][1,4]oxazine derivatives as novel Pim-1 kinase inhibitors” (Bioorg Med Chem Lett, 2022).

The target of assay [1] is Serine/threonine-protein kinase pim-1 (Homo sapiens, UniProt P11309). Kind of assay: Inhibition of Pim-1 (unknown origin) measured by ADP-Glo kinase assay. (ADP-Glo first removes unused ATP, then detects ADP through luciferase.)
The subject of assay [2] is MDA-MB-231. Kind of assay: Antiproliferative activity against human […] cells measured by cell viability assay. In kind it is functional, cell-based.

Chain of Serine/threonine-protein kinase pim-1 (P11309 whole entry): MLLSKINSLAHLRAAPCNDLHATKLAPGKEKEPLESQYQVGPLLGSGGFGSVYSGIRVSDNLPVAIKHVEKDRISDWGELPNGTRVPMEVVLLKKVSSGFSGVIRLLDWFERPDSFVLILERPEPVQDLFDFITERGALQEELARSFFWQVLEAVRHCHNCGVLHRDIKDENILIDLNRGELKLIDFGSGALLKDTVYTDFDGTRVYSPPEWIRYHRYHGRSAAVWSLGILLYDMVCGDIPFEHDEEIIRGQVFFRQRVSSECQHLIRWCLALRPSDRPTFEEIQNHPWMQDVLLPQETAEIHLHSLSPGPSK

For orientation: IC50 means the concentration needed to halve the response being measured. A higher IC50 goes with a need for much substance. As to `c1cc2c(cn1)Oc1ccc3cc1N2CCCCNCCOCCO3`, the IC50 in assay [1] turned out to be 0.176 µM; in assay [2], 12.3 µM.

For `c1cc2c(cn1)Oc1ccc3cc1N2CCCCNCCCCO3`, the IC50 was 0.434 µM in assay [1] and 19 µM in assay [2].

With `c1cc2c(cn1)Oc1ccc3cc1N2CCCCNCCCCCO3`, the figures for the IC50 in assay [1] and in assay [2] were 0.27 µM and 16.3 µM, respectively.

As for `c1cc2c(cn1)Oc1ccc3cc1N2CCOCCNCCCCCO3`, the figures for the IC50 in assay [1] and in assay [2] were 2.19 µM and 35.4 µM, respectively.

For the compound `c1cc2c(cn1)Oc1ccc3cc1N2CCOCCNCCCCO3`, the half-maximal inhibitory concentration (IC50) in assay [1] worked out at 0.467 µM; in assay [2], 44 µM.

Take `c1cc2c(cn1)Oc1ccc3cc1N2CCOCCNCCCO3`: the IC50 came to 0.881 µM in assay [1] and 30 µM in assay [2].

As to `c1cc2c(cn1)Oc1ccc3cc1N2CCCCCNCCCCO3`, the IC50 stood at 0.0351 µM in assay [1] and 8.15 µM in assay [2].

In the case of `c1cc2c(cn1)Oc1ccc3cc1N2CCCCCNCCOCCO3`, the IC50 was determined as 0.14 µM in assay [1] and 25.9 µM in assay [2].

`c1cc2c(cn1)Oc1ccc3cc1N2CCCNCCOCCO3`: the IC50 in assay [1] came to 0.0573 µM; in assay [2], 19.5 µM.
